# Assay results from publication PMC7689490, “Designed CXCR4 mimic acts as a soluble chemokine receptor that blocks atherogenic inflammation by agonist-specific targeting” (Nature Communications, 2020).
# Where “and” joins values, the source holds several entries; their conditions need not be identical. Equal entries are not always repeated. Entries after “also recorded” stand apart in the source; their conditions may differ.
# What was measured:
# [1] = test system: pAMPK/AMPK in HCM; assay: MIF/CD74-triggered AMPK signaling in human cardiomyocytes (HCM); assay type: cell-based
# Description: HCMs (2 × 10^5 per well) were plated in 12-well plates and maintained for 2 days with cultured medium containing 5% FCS. Before stimulation, medium was replaced by fresh myocyte basal medium containing 0.05% FCS and HCMs rested for 16 h. Surface CD74 expression on HCMs was verified by flow cytometry (FITC-conjugated anti-human CD74 (1:100 dilution), FITC-IgG2 (isotype control) (BD Pharmingen), 1 h/4 °C in the dark, BD FACSVerse™ flow cytometer, FlowJo software). […] After treatment, cells were lysed and subjected to SDS-PAGE (10%)/Western blotting using NuPAGE® lithium dodecyl sulfate (LDS)/dithiothreitol (DTT) lysis buffer-containing PhosSTOP^TM reagent (Roche Applied Science). […] Anti-rabbit horse-radish peroxidase (HRP)-conjugated antibody (1:10000, GE Healthcare, Freiburg, Germany) was used for development and signals quantitated by chemiluminescence using an Odyssey® Fc imager. Unprocessed scans of the Western blots are supplied in the Source Data file.
# [2] = test system: MonoMac-6 / HAoEC; assay: MIF-induced MonoMac-6 adhesion to HAoECs under flow; assay type: cell-based, human
# Description: HAoECs were seeded at a density of 60,000 cells per channel in collagen-coated Ibidi µ-Slides I 0.8 and incubated for 20–24 h until monolayers were confluent. […] Prior to the flow assay, MgSO4 and CaCl2 were added to MonoMac6 suspensions at a final concentration of 1 mM. Flow channels containing HAoEC monolayers were then perfused with MonoMac6 cells at a shear rate of 1.5 dyn cm^−2 for 10 min at 37 °C using the Ibidi Pump System/Perfusion Set. For quantification of adherent monocytes, images from four positions per channel were acquired using a Leica DMi8 inverted microscope (20 x objective) and quantified with ImageJ.
# [3] = test system: MonoMac-6 / HAoEC; assay: MIF-induced static adhesion of MonoMac-6 monocytes to HAoECs; assay type: cell-based, human
# Description: HAoECs were seeded at a density of 30,000 cells/well in 6 well µ-Ibidi Perfusion slides VI 0.4 (Ibidi GmbH). […] After perfusion of the chambers with fresh medium, MonoMac6 cells (1 × 10^6 cells mL^−1) in PromoCell medium were added for 30 min. Non-adhering cells were flushed away by gentle perfusion using a 30 mL syringe. To quantify adherent monocytes, seven individual images (technical triplicates each) from each treatment were acquired using a Leica DMi8 inverted microscope with a ×10 objective and cells quantified using ImageJ.
# [4] = test system: primary human monocyte-derived macrophages; assay: MIF-mediated DiI-LDL uptake / foam cell formation; assay type: cell-based; settings: 80 nM MIF
# Description: After washing with imaging solution (MEM without phenol red containing 30 mM HEPES, 0.5 g/L NaHCO3, pH 7.4, and 0.2% BSA), cells were exposed to 50 µg mL^−1 1,1′-dioctadecyl-3,3,3′3′-tetramethylindocarbocyanine-labeled oxidized LDL (DiI-oxLDL) or DiI-labeled native LDL (DiI-LDL) for 30 min at 4 °C, followed by incubation at 37 °C for 20 min. Cells were washed with ice-cold imaging solution (pH 3.5), fixed, and counter-stained with Hoechst 33258.
# [5] = test system: human monocyte-derived macrophages; assay: LDLR and CXCR4 cell surface levels in macrophages (flow cytometry, Reviewer-only Figure 4); assay type: cell-based
# Description: crosstalk, or might even imply that CXCR4 and LDLR colocalize/complex and are subjected to a joint internalization event.
# We feel that these studies warrant further in-depth (and mechanistic) exploration, which are […]
# in the manuscript. We have therefore prepared them as Reviewer-only Figure 4 below.
# Supplementary part of the manuscript, we are happy to do so. […]
# expression and endocytosis in human monocyte-derived macrophages. LDLR and CXCR4 cell surface levels were measured by flow cytometry. Experiments were performed in the presence of LDL and the […]
# containing 100µg/mL penicillin, 100 µg/mL streptomycin, and 0.2% BSA) for 15 min at 37°C and subsequently exposed to LDL (25 µg/mL) for 15 min. After washing with PBS, cells were collected and incubated with anti-hLDLR-APC (1:100, R&D Systems, FAB2148A) and anti-CXCR4-PE (1:100, R&D Systems, FAB170P) at 4°C for 1 h. MIF stimulation enhances LDL-triggered internalization of LDLR and […]
# The data shown are from one of two experiments
# MIF dependent adhesion can be blocked, it is unclear whether MIF dependent adhesion to TNF-activated (since this stimulus seems relevant in in vivo settings) endothelial cells can be […]
# Response: Thank you for this important point. […]
# experiment and now include static adhesion data using TNF-primed endothelial cells in the […]
# [6] = test system: Apoe−/− mice on HFD; assay: In vivo model of atherosclerosis (lesions, lesional macrophages, tolerability)
# Description: Seven-eight-week-old female Apoe^−/− mice were randomly divided into two groups of 11–12 mice each and both groups put on a Western-type HFD (0.21% cholesterol) for 4.5 weeks. Mice develop early-to-intermediate atherosclerotic lesions in this model. […] At the end of the experiment, mice were sacrificed, blood collected by cardiac puncture and saved for blood cell and lipid measurements and mice transcardially perfused with saline. Hearts, proximal aortas and carotid arteries were prepared and fixed for plaque morphometry and lesion analysis.
# Quantification of plaques and vessel morphometry (ORO and H&E staining). Cut heart tissues containing aortic root were embedded in Tissue Tek optimum cutting temperature (OCT) substance (Sakura Finetek, Osaka, Japan) and frozen at −80 °C. Eight-µm sections were prepared for ORO staining and plaque immune cell analysis. The accumulation of macrophages in aortic root lesions was determined by an anti-MAC-2 antibody (1:100 dilution) followed by Cy5-conjugated secondary antibody. Nuclei were visualized with DAPI. The aortic arch was cut, fixed in 4% paraformaldehyde (PFA) and embedded in paraffin. Four-µm sections containing the three branches (brachiocephalic, left common carotid, and left subclavian artery) were prepared and stained with hematoxylin/eosin (H&E) for vessel morphometry. Images were captured with a Leica DMi8 microscope and quantified using ImageJ.
# [7] = MIF + msR4M-L1, individual replicates, n = 4
compound,measurement,setting,value
"CC[C@H](C)[C@H](NC(=O)[C@H](Cc1ccc(O)cc1)NC(=O)[C@H](CCCNC(=N)N)NC(=O)[C@H](CC(=O)O)NC(=O)CCCCCCCCCCCNC(=O)CCCCCNC(=O)[C@H](CCCCN)NC(=O)[C@H](CS)NC(=O)[C@H](CC(C)C)NC(=O)[C@H](Cc1ccccc1)NC(=O)[C@H](CC(N)=O)NC(=O)CNC(=O)[C@H](Cc1ccccc1)NC(=O)[C@H](Cc1ccc(O)cc1)NC(=O)[C@H](Cc1c[nH]c2ccccc12)NC(=O)[C@H](CC(N)=O)NC(=O)[C@H](C)NC(=O)[C@@H](NC(=O)[C@H](C)NC(=O)[C@@H](N)CC(=O)O)C(C)C)C(=O)N[C@@H](CS)C(=O)N[C@@H](CC(=O)O)C(=O)N[C@@H](CCCNC(=N)N)C(=O)N[C@@H](Cc1ccccc1)C(=O)N[C@@H](Cc1ccc(O)cc1)C(=O)N1CCC[C@H]1C(=O)N[C@@H](CC(N)=O)C(=O)N[C@@H](CC(=O)O)C(=O)N[C@@H](CC(C)C)C(=O)N[C@@H](Cc1c[nH]c2ccccc12)C(=O)N[C@H](C(N)=O)C(C)C [msR4M-L1, CXCR4-ECL1[97–110]-6-Ahx-12-Ado-ECL2[182–196]]",effect on MIF-upregulated pAMPK levels,[1],not attenuated
same,effect on MIF-induced monocyte adhesion under flow,"[2]; 1.5 dyn/cm^2, 16 nM MIF, 320 nM msR4M-L1",inhibited monocyte adhesion
same,"Fig. 5c, MIF-induced monocyte adhesion",[2]; [7],206 and 207 and 188 and 291
same,"Fig. 5b, MIF-induced monocyte adhesion","[2]; TNF + MIF + msR4M-L1, individual replicates, n = 3",105.71 and 99.43 and 83.71
same,"effect on MIF-induced static monocyte adhesion, TNF-α-prestimulated HAoECs","[3]; 40 pM TNF-α pre-treatment, 320 nM msR4M-L1",abrogated the effect of MIF
same,"effect on MIF-induced static monocyte adhesion, resting HAoECs","[3]; 16 nM MIF, 320 nM msR4M-L1, 16 h",blocked the pro-adhesion effect of MIF
same,"Fig. 5a, MIF-induced monocyte adhesion",[3]; [7],56.3 and 56.9 and 61.4 and 42.3
same,inhibition of MIF-mediated DiI-LDL uptake,[4],"dose-dependently inhibited; also recorded: slightly better than that of ISO-1, but lower than that of NIH/IIID.9"
same,"LDLR cell surface level (Q3), MIF + msR4M-L1","[5]; 80 nM MIF, 400 nM msR4M-L1, LDL 25 µg/mL, without MIF 15.1%, MIF alone 8.99%, one of two experiments",12.6%
same,"CXCR4 cell surface level (Q3), MIF + msR4M-L1","[5]; as E143, without MIF 39%, MIF alone […]",48.7%
same,toxicity or side effects,[6]; 50 µg i.p. for 4.5 weeks,No toxicity or side effects were noted
same,atherosclerotic lesion size in aortic arch,"[6]; Apoe−/− mice, HFD 4.5 weeks, 50 µg (2.5 mg kg^−1) i.p. three times per week, HE, 7 vs 7 mice",significantly decreased
same,Lesion area (x10to3 µm2),"[6]; Fig. 6g, msR4M-L1-treated animals, per animal, n = 11",184.774 x10to3 µm2 and 104.198 x10to3 µm2 and 151.257 x10to3 µm2 and 126.04 x10to3 µm2 and 45.213 x10to3 µm2 and 130.67 x10to3 µm2 and 89.727 x10to3 µm2 and 63.265 x10to3 µm2 and 177.705 x10to3 µm2 and 117.601 x10to3 µm2 and 70.989 x10to3 µm2
same,"number of lesional macrophages, MAC-2 staining","[6]; as E123, 11 vs 12 mice",significantly decreased
same,atherosclerotic lesion size in aortic root,"[6]; as E123, ORO, 12 vs 12 mice",significantly decreased
